Experimental data from patent US9765067B2, “Thiophen-2-yl-pyridin-2-yl-1H-pyrazole-4-carboxylic acid derivatives and the use thereof as soluble guanylate cyclase activators” (Novartis AG, priority 2014, dated 2017).

Molecular target: T1, soluble guanylate cyclase (human GUCYA3/GUCYB3) overexpressed in CHO cells (Homo sapiens, UniProt Q02108+Q02153)
T1 construct: expressed in transfected cells
T1 sequence (Q02108 1-690 partner): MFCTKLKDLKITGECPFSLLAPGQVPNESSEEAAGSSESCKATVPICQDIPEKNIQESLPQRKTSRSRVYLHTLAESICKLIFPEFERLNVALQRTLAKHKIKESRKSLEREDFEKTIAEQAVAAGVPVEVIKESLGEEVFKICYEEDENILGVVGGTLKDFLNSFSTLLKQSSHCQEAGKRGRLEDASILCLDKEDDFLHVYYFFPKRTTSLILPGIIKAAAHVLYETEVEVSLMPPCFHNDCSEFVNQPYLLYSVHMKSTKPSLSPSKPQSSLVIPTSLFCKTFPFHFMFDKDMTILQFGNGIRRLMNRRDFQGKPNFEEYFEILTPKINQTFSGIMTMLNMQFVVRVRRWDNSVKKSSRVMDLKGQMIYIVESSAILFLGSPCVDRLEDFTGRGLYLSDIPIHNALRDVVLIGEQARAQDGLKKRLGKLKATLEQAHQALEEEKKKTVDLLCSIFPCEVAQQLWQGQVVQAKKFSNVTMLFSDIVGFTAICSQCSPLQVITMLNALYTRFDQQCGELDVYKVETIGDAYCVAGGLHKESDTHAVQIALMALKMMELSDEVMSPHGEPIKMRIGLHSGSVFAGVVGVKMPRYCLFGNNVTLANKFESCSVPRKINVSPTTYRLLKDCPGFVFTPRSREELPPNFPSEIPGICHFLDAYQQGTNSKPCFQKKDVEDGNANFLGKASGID
T1 sequence (Q02153 1-619): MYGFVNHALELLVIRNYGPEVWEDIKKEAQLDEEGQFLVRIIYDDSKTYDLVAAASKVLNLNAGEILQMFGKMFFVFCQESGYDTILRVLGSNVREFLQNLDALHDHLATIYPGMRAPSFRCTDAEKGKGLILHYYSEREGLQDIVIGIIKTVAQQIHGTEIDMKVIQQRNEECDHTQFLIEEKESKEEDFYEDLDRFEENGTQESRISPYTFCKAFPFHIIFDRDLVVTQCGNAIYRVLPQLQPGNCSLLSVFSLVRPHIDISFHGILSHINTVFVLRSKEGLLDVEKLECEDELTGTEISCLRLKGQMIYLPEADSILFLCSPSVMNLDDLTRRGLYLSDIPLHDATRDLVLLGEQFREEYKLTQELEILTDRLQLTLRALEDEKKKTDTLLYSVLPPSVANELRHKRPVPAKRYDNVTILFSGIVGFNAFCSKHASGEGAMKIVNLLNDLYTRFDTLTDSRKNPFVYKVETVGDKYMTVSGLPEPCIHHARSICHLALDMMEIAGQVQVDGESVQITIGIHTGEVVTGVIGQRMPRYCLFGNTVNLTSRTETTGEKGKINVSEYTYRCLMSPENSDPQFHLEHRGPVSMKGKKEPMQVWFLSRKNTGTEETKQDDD
Assay: CHO cellular assay (cGMP production, HTRF)
Assay type: cell-based
Conditions: CHO K1 clone 8E10 overexpressing human sGC, Cisbio HTRF, 1 h room temperature, 1 mM IBMX, 20 uM ODQ, minimum quantification limit 0.5 nM
Method in brief: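 Stable CHO K1 clone expressing human GUCYA3/GUCYB3. Compounds applied 1 h at room temperature in HBSS, 0.1% BSA, 1 mM IBMX, 20 uM ODQ, 0.5% DMSO. cGMP measured by HTRF and interpolated from a standard curve; EC50 from 4-parameter sigmoidal fit.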

SMILES	EC50 [nM]
Cc1cc(COc2ccc(C3CCN(C(=O)C4CC4)CC3)cc2F)c(-c2cccc(-n3ncc(C(=O)O)c3C(F)(F)F)n2)s1 [Example 6-13, 1-(6-(3-((4-(1-(Cyclopropanecarbonyl)piperidin-4-yl)-2-fluorophenoxy)methyl)-5-methylthiophen-2-yl)pyridin-2-yl)-5-(trifluoromethyl)-1H-pyrazole-4-carboxylic acid]	1
CCc1nc(OCc2cc(C)sc2-c2cccc(-n3ncc(C(=O)O)c3C(F)(F)F)n2)ccc1C1CCN(C(=O)C2CC2)CC1 [Example 39, 1-(6-(3-(((5-(1-(Cyclopropanecarbonyl)piperidin-4-yl)-6-ethylpyridin-2-yl)oxy)methyl)-5-methylthiophen-2-yl)pyridin-2-yl)-5-(trifluoromethyl)-1H-pyrazole-4-carboxylic acid]	1
Cc1cc(C2CCN(C(=O)C3CC3)CC2)ccc1OCc1cc(C(C)C)sc1-c1cccc(-n2ncc(C(=O)O)c2C(F)(F)F)n1 [Example 35-1, 1-(6-(3-((4-(1-(Cyclopropanecarbonyl)piperidin-4-yl)-2-methylphenoxy)methyl)-5-isopropylthiophen-2-yl)pyridin-2-yl)-5-(trifluoromethyl)-1H-pyrazole-4-carboxylic acid]	96
CCc1c(C(=O)O)cnn1-c1cccc(-c2sc(C)c(C)c2CNc2ccc(C3CCN(C(=O)C4CC4)CC3)cc2C)n1 [Example 20-2, 1-(6-(3-(((4-(1-(Cyclopropanecarbonyl)piperidin-4-yl)-2-methylphenyl)amino)methyl)-4,5-dimethylthiophen-2-yl)pyridin-2-yl)-5-ethyl-1H-pyrazole-4-carboxylic acid]	≤ 0.5
Cc1cc(C2CCN(C(=O)C3CC3)CC2)ccc1NC(C)c1ccsc1-c1cccc(-n2ncc(C(=O)O)c2C(F)(F)F)c1 (centres unmarked) [Example 36, 1-(3-(3-(1-((4-(1-(Cyclopropanecarbonyl)piperidin-4-yl)-2-methylphenyl)amino)ethyl)thiophen-2-yl)phenyl)-5-(trifluoromethyl)-1H-pyrazole-4-carboxylic acid]	15
CCC(=O)N1CCC(c2ccc(OCc3c(C(F)(F)F)csc3-c3cccc(-n4ncc(C(=O)O)c4C(F)(F)F)n3)cc2)CC1 [Example 2-1, 1-(6-(3-((4-(1-Propionylpiperidin-4-yl)phenoxy)methyl)-4-(trifluoromethyl)thiophen-2-yl)pyridin-2-yl)-5-(trifluoromethyl)-1H-pyrazole-4-carboxylic acid]	2.8
Cc1cc(C2CCN(C(=O)C3CC3)CC2)ccc1OCc1c(-c2cccc(-n3ncc(C(=O)O)c3C(F)(F)F)n2)sc(C)c1C [Example 6-8, 1-(6-(3-((4-(1-(Cyclopropanecarbonyl)piperidin-4-yl)-2-methylphenoxy)methyl)-4,5-dimethylthiophen-2-yl)pyridin-2-yl)-5-(trifluoromethyl)-1H-pyrazole-4-carboxylic acid]	≤ 0.5
Cc1cc(COc2ccc(C3CCN(C(=O)C4CC4)CC3O)cc2)c(-c2cccc(-n3ncc(C(=O)O)c3C(F)(F)F)n2)s1 (racemic) [Example 35-11, (±)-trans-1-(6-(3-((4-(1-(Cyclopropanecarbonyl)-3-hydroxypiperidin-4-yl)phenoxy)methyl)-5-methylthiophen-2-yl)pyridin-2-yl)-5-(trifluoromethyl)-1H-pyrazole-4-carboxylic acid]	160
CCC(=O)N1CCC(c2cc(C)c(OCc3ccsc3-c3cccc(-n4ncc(C(=O)O)c4C(F)(F)F)n3)c(C)c2)CC1 [Example 4-1]	2
CCc1cc(OCc2c(C)csc2-c2cccc(-n3ncc(C(=O)O)c3C(F)(F)F)n2)ccc1C1CCN(C(=O)C2CC2)CC1 [Example 10-5, 1-(6-(3-((4-(1-(Cyclopropanecarbonyl)piperidin-4-yl)-3-ethylphenoxy)methyl)-4-methylthiophen-2-yl)pyridin-2-yl)-5-(trifluoromethyl)-1H-pyrazole-4-carboxylic acid]	≤ 0.5
Cc1cc(C2CCN(C(=O)C3CC3)CC2)ccc1OCc1ccsc1-c1cccc(-n2ncc(C(=O)O)c2C(F)(F)F)n1 [Example 12-2, 1-(6-(3-((4-(1-(Cyclopropanecarbonyl)piperidin-4-yl)-2-methylphenoxy)methyl)thiophen-2-yl)pyridin-2-yl)-5-(trifluoromethyl)-1H-pyrazole-4-carboxylic acid]	4.5
CCC(=O)N1CCC(c2ccc(OCc3ccsc3-c3cccc(-n4ncc(C(=O)O)c4C(F)(F)F)n3)c(Cl)c2)CC1 [Example 7, 1-(6-(3-((2-Chloro-4-(1-propionylpiperidin-4-yl)phenoxy)methyl)thiophen-2-yl)pyridin-2-yl)-5-(trifluoromethyl)-1H-pyrazole-4-carboxylic acid]	≤ 0.5
CCCc1cc(OCc2cc(C)sc2-c2cccc(-n3ncc(C(=O)O)c3C(F)(F)F)n2)ccc1C1CCN(C(=O)C2CC2)CC1 [Example 35-15, 1-(6-(3-((4-(1-(Cyclopropanecarbonyl)piperidin-4-yl)-3-propylphenoxy)methyl)-5-methylthiophen-2-yl)pyridin-2-yl)-5-(trifluoromethyl)-1H-pyrazole-4-carboxylic acid]	1.4
CCc1csc(-c2cccc(-n3ncc(C(=O)O)c3C(F)(F)F)n2)c1COc1ccc(C2CCN(C(=O)C3CC3)CC2)cc1C [Example 18-4, 1-(6-(3-((4-(1-(Cyclopropanecarbonyl)piperidin-4-yl)-2-methylphenoxy)methyl)-4-ethylthiophen-2-yl)pyridin-2-yl)-5-(trifluoromethyl)-1H-pyrazole-4-carboxylic acid]	5.9
Cc1cc(C2CCN(C(=O)C3CC3)CC2)ccc1NCc1ccsc1-c1cccc(-n2ncc(C(=O)O)c2C)n1 [Example 15, 1-(6-(3-(((4-(1-(Cyclopropanecarbonyl)piperidin-4-yl)-2-methylphenyl)amino)methyl)thiophen-2-yl)pyridin-2-yl)-5-methyl-1H-pyrazole-4-carboxylic acid]	≤ 0.5
O=C(O)c1cnn(-c2cccc(-c3sccc3CCc3ccc(C4CCN(C(=O)C5CC5)CC4)cc3)n2)c1C(F)(F)F [Example 27, 1-(6-(3-(4-(1-(Cyclopropanecarbonyl)piperidin-4-yl)phenethyl)thiophen-2-yl)pyridin-2-yl)-5-(trifluoromethyl)-1H-pyrazole-4-carboxylic acid]	≤ 0.5
CCc1cc(OCc2cc(C)sc2-c2cccc(-n3ncc(C(=O)O)c3C(F)(F)F)n2)ccc1C1CCN(C(=O)C2CC2)CC1 [Example 6-11, 1-(6-(3-((4-(1-(Cyclopropanecarbonyl)piperidin-4-yl)-3-ethylphenoxy)methyl)-5-methylthiophen-2-yl)pyridin-2-yl)-5-(trifluoromethyl)-1H-pyrazole-4-carboxylic acid]	≤ 0.5
Cc1cc(C2CCN(C(=O)C3CC3)CC2)ccc1OCc1ccsc1-c1cccc(-n2ncc(C(=O)O)c2C)n1 [Example 9, 1-(6-(3-((4-(1-(Cyclopropanecarbonyl)piperidin-4-yl)-2-methylphenoxy)methyl)thiophen-2-yl)pyridin-2-yl)-5-methyl-1H-pyrazole-4-carboxylic acid]	≤ 0.5
Cc1cc(COc2ccc(C3CCN(C(=O)C4CC4)CC3)c(C)c2)c(-c2cccc(-n3ncc(C(=O)O)c3C(F)(F)F)n2)s1 [Example 35-4, 1-(6-(3-((4-(1-(Cyclopropanecarbonyl)piperidin-4-yl)-3-methylphenoxy)methyl)-5-methylthiophen-2-yl)pyridin-2-yl)-5-(trifluoromethyl)-1H-pyrazole-4-carboxylic acid]	2
Cc1cc(COc2ccc(C3CCN(C(=O)C4CC4)CC3)c(C(C)C)c2)c(-c2cccc(-n3ncc(C(=O)O)c3C(F)(F)F)n2)s1 [Example 6-12, 1-(6-(3-((4-(1-(Cyclopropanecarbonyl)piperidin-4-yl)-3-isopropylphenoxy)methyl)-5-methylthiophen-2-yl)pyridin-2-yl)-5-(trifluoromethyl)-1H-pyrazole-4-carboxylic acid]	1
